Consider 7 molecules from US8741932B2, “Imidazopyridine derivatives” (Piramal Enterprises Limited, priority 2009, dated 2014).

Molecules are shown by their SMILES. A value given as a limit tells only on which side of the number the result lay.

Test [1] concerns the target T1, PI3Kα kinase (Homo sapiens, UniProt P42336).
T1 construct: purchased Millipore, USA
Nature of the test: Kinase assay (PI3Kα). As to conditions: read-out: IC50 (μM) for PI3K inhibition. Format: biochemical. The procedure:
The kinase reaction was carried out in a 25 μL volume in a 1.5 mL microcentrifuge tube. The reaction mixture consisted of kinase buffer (10 mM Hepes, pH 7.5, 50 mM MgCl2), 20 ng PI3Kα kinase (Millipore, USA), 12.5 μg phosphotidylinositol (PI), 10 μM ATP and 1 μCi ^32γ P […]. […] The reactions were incubated at 30° C. for 20 minutes and were terminated by adding 1:1 mixture of MeOH and CHCl3. The tube contents were mixed on a vortex mixer and centrifuged at 10000 rpm for 2 minutes. 10 μL of the organic (lower) phase was spotted on to a TLC plate (silica, mobile phase: n-propanol and 2 M glacial acetic acid in 65:35 ratio). The plates were dried and exposed to an X-ray film. The bands appearing as a result of ^32γ P incorporation in PI were quantitated using the Quantityl)ne (BioRad, USA) densitometry program. PI-103 (Calbiochem, USA) was used as a standard.

The subject of test [2] is H460. Nature of the test: Cytotoxicity assay (propidium iodide), H460. Format: cell-based. As to conditions: Homo sapiens, NCI-H460; H460 (C1b, lung); 48 hours.
Test [3] deals with MDA MB 468. The experiment in a line: Cytotoxicity assay (propidium iodide), MDA MB 468. Format: cell-based. The conditions noted are these: Homo sapiens; MDA MB 468 (C6b, breast); 48 hours.
Procedure: (§1) Cells from cell lines as mentioned in the table given below were seeded at a density of 3000 cells/well in a white opaque 96-well plate. Following incubation at 37° C./5% CO2 for a period of 18-24 hours, the cells were treated with various concentrations (stock solution was prepared in DMSO and subsequent dilutions were made in media as per ATCC guidelines) of the representative compounds of present invention (refer table 3) for a period of 48 hours. At the end of treatment, the spent culture medium was discarded, the cells were washed with 1×PBS and 200 μl of 7 μg/ml propidium iodide was added to each well. The plates were frozen at −70° C. for at least 24 hours. For analysis, the plates were brought to RT, allowed to thaw and were read in PolarStar fluorimeter with the fluorescence setting. The percentage of viable cells in the non treated set of wells was considered to be 100 and the percentage viability following treatment was calculated accordingly. IC50 values were calculated from graphs plotted using these percentages.
Test [4] has as its system G361. Nature of the test: Cytotoxicity assay (propidium iodide), G361. Format: cell-based. As to conditions: G-361; G361 (C9a, human melanoma); 48 hours.
Procedure: as §1
The subject of test [5] is MCF7. The experiment in a line: Cytotoxicity assay (propidium iodide), MCF7. Format: cell-based. The conditions noted are these: Homo sapiens; MCF7 (C6c, breast); 48 hours.
Procedure: as §1
Test [6] concerns PC3. Nature of the test: Cytotoxicity assay (propidium iodide), PC3. As to conditions: Homo sapiens, PC-3, 48 h, read-out: IC50 cytotoxicity.
The test system of test [7] is A549. The experiment in a line: Cytotoxicity assay (propidium iodide), A549. As to conditions: Homo sapiens; A549 (C1a, lung); 48 hours. Format: cell-based.
Procedure: as §1
In test [8] the target is T2, mTOR (Homo sapiens, UniProt P42345).
T2 construct: endogenous in cells; host or cells: A2780 ovarian cell line (ATCC)
Nature of the test: mTOR activity assay (cell ELISA, Phospho-AKT Ser 473, A2780 cells). Format: cell-based. As to conditions: 1 μM, read-out: % Inhibition of mTOR activity at 1 μM. The protocol: Seed cells (Ovarian cell line A2780, ATCC) were plated in a 96 well microtitre plate at a density of 50,000 cells/cm^2 in appropriate complete cell culture medium. The cells were allowed to adhere for 18-24 hours. The cells were allowed to starve for 24 hours. […] Then the cells were stimulated with 20% FCS for 30 minutes. A typical assay would consist of a set of unstimulated cells, a set of stimulated cells and a set of cells treated with compounds of present invention and a set of cells treated with the stimulator. The medium was discarded. The cells were fixed with 100 μL of 3.7% formaldehyde for 15 minutes. The formaldehyde was discarded by inverting the plate and tapping it on a thick tissue paper layer to remove traces. The cells were washed and permeabilized with 200 μL PBS+Triton-X 100 solution (hereafter referred to as PBS-Triton, containing 0.1% triton-X 100 in 1×PBS) three times, incubating the cells each time for 5 minutes. 100 μL blocking solution (10% FCS in PBS-Triton) was added and incubated for 1 hour at 25° C. The blocking solution was discarded and cells were incubated with the primary antibody in PBS-Triton at a dilution of 1:500 for 1 hour at RT (25° C.). [The primary antibody is Phospho-AKT (Ser 473); Cell Signaling; Cat. No. 9271]. The primary antibody solution was discarded and the cells were washed 3 times with PBS-Triton solution and incubated with the HRP-conjugated secondary antibody in PBS-Triton at a dilution of 1:500 for 1 hour at RT (25° C.). The cells were washed 3 times with PBS-Triton followed by two washes with PBS (to remove traces of triton-X 100). The OPD (o-phenylene diamine dihydrochloride) substrate was prepared for detection of the signal by dissolving one tablet set (two tablets) of SigmaFast OPD (Sigma, Cat No. P9187) in 20 mL distilled water. It should be protected from light. 100 μL OPD solutions was added to the wells and the plate was incubated in the dark for 3-5 minutes (depending upon the development of the color). The reaction was stopped by adding 50 μL 2 N H2SO4. The absorbance was measured at 490 nm. The values were expressed in the treated samples, in terms of percentage or fold decrease in AKT phosphorylation with respect to the induced sample. PI-103 (Calbiochem, USA) was used as a standard.

Test [9] deals with BT 549. The experiment in a line: Cytotoxicity assay (propidium iodide), BT 549. Format: cell-based. The conditions noted are these: Homo sapiens; BT 549 (C6d, breast); 48 hours.
Procedure: as §1
The subject of test [10] is IL-6. The experiment in a line: Human monocyte assay, LPS-stimulated IL-6. Format: cell-based. The conditions noted are these: Monocyte; human monocytes, 1 μg/ml LPS, 5 hours. The gist of the method: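 Adherent human PBMC-derived monocytes (2×10^4/well) were cultured 48 h, preincubated 30 min with compound or 0.5% DMSO, then stimulated with 1 μg/ml E. coli LPS for 5 h at 37° C. TNF-α and IL-6 in supernatants were measured by ELISA.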

The subject of test [11] is A2780. Nature of the test: Cytotoxicity assay (propidium iodide), A2780. Format: cell-based. The conditions noted are these: Homo sapiens; A2780 (C3a, ovarian); 48 hours.
For test [12], the system named is MDA MB 231. Nature of the test: Cytotoxicity assay (propidium iodide), MDA MB 231. Format: cell-based. The conditions noted are these: Homo sapiens; MDA MB 231 (C6a, breast); 48 hours.
Procedure: as §1
The test system of test [13] is HT29. Nature of the test: Cytotoxicity assay (propidium iodide), HT29. The test is classed as cell-based. As to conditions: Homo sapiens, HT-29; HT29 (C4a, colon); 48 hours.
Procedure: as §1

T1 sequence (P42336 whole entry): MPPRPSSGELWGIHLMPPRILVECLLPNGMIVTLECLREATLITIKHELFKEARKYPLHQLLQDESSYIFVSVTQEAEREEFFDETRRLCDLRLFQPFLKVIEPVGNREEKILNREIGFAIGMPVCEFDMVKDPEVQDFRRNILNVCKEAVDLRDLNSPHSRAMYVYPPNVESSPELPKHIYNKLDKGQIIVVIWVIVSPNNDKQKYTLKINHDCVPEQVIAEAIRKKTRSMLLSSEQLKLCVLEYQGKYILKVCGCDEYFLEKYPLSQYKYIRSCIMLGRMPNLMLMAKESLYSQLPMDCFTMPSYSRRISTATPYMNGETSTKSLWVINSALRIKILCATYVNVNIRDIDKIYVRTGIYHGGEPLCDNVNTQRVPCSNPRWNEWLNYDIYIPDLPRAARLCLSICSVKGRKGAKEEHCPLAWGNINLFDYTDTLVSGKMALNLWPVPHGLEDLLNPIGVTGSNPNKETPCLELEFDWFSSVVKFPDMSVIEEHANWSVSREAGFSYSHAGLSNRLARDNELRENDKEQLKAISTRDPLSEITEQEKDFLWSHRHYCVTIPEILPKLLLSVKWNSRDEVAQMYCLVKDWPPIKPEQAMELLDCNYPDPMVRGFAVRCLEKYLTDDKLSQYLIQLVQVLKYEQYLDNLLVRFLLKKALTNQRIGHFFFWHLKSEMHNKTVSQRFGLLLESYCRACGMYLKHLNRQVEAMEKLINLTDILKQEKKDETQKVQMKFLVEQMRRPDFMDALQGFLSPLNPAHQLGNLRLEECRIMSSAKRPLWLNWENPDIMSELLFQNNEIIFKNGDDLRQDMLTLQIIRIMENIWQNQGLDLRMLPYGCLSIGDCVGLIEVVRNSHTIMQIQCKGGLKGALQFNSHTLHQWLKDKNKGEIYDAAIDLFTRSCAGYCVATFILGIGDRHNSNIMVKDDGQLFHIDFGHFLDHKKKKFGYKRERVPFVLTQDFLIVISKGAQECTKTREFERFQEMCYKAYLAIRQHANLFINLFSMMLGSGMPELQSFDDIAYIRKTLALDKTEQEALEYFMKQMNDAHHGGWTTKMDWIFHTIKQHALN
T1 sequence (P27986 whole entry partner): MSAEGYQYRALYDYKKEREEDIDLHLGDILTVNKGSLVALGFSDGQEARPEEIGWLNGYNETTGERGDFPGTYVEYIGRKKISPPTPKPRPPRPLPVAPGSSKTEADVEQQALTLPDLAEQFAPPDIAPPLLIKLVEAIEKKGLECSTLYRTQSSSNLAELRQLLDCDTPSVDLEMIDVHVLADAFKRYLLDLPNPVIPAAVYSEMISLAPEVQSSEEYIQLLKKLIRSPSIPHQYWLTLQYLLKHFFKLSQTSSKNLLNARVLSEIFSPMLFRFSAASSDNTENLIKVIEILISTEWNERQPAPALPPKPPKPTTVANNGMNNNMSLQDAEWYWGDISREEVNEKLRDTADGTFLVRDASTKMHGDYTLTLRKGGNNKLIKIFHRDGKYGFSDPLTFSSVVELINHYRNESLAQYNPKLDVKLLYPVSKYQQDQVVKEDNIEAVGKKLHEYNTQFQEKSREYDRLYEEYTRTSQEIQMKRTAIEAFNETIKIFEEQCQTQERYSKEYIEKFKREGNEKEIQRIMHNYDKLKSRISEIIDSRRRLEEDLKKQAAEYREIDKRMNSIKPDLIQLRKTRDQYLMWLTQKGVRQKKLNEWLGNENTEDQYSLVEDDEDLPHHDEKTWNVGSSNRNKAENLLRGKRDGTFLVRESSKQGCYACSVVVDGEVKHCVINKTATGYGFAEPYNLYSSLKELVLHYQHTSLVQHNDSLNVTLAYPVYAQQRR

For the molecule `CN(N=Cc1cnc2ccc(-c3cccnc3)cn12)S(=O)(=O)c1cccc(Br)c1` [Example 7, 3-Bromo-N-methyl-N′-((6-(pyridine-3-yl)imidazo[1,2-a]pyridine-3-yl)methylene) benzenesulfonohydrazide], the IC50 is 0.01 to 0.5 µM in [1]; over 5 µM in test [2]; over 5 µM in test [3]; over 5 µM in test [4]; over 5 µM in test [5]; over 5 µM in test [6]. Moreover, in test [7], the IC50 is over 5 µM. Also, in [8], the inhibition at 1 µM fell in the range of 30 to 50%.
As to `CN(N=Cc1cnc2ccc(-c3cccnc3)cn12)S(=O)(=O)c1ccc(C#N)cc1` [Example 11, 4-Cyano-N-methyl-N′-((6-(pyridine-3-yl)imidazo[1,2-a]pyridine-3-yl)methylene)benzenesulfonohydrazide], the IC50 in test [1] is 0.01 to 0.5 µM; in [2], over 5 µM; in test [3] it was over 5 µM; in [9], over 5 µM; in test [6], over 5 µM; in test [7] it was over 5 µM. Moreover, the IC50 in test [10] was at least 5 µM; in [11], over 5 µM. Besides, the inhibition at 1 µM in test [8] was 30 to 50%.
With `CN(N=Cc1cnc2ccc(-c3cccnc3)cn12)S(=O)(=O)c1ccc(F)c(Cl)c1` [Example 18, 3-Chloro-4-fluoro-N-methyl-N′-((6-(pyridine-3-yl)imidazo[1,2-a]pyridine-3-yl)methylene) benzenesulfonohydrazide], the IC50 in [1] was 0.01 to 0.5 µM; in test [2], over 5 µM; in test [3], over 5 µM; in test [4], over 5 µM; in test [5], over 5 µM; in test [6], over 5 µM. Besides, the IC50 in test [7] is over 5 µM.
Regarding `Cc1cc(C)c(S(=O)(=O)N(C)N=Cc2cnc3ccc(-c4cccnc4)cn23)c(C)c1` [Example 27, N, 2,4,6-tetramethyl-N′-((6-(pyridine-3-yl)imidazo[1,2-a]pyridine-3-yl)methylene)benzenesulfonohydrazide], the IC50 was 0.01 to 0.5 µM in [1]; over 5 µM in test [2]; over 5 µM in [3]; over 5 µM in test [4]; over 5 µM in test [5]; over 5 µM in test [6]. Moreover, the IC50 in test [7] is over 5 µM.
`CN(N=Cc1cnc2ccc(-c3cccnc3)cn12)S(=O)(=O)c1cccc2cccnc12` [Example 30, N-methyl-N′-((6-(pyridine-3-yl)imidazo[1,2-a]pyridine-3-yl)methylene) quinoline-8-sulfonohydrazide]: the IC50 in test [2], in test [3], in test [4], in [5], in test [6] and in [7] was over 5 µM throughout. For the same molecule, in test [10], the IC50 was at least 5 µM.
For `CN(N=Cc1cnc2ccc(-c3cccnc3)cn12)S(=O)(=O)C1CCCCC1` [Example 31, N-methyl-N′-((6-(pyridine-3-yl)imidazo[1,2-a]pyridine-3-yl)methylene) cyclohexanesulfonohydrazide], the IC50 is 0.01 to 5 µM in test [2]; 0.01 to 5 µM in test [6]; 0.01 to 5 µM in test [12]; 0.01 to 5 µM in [7]; over 5 µM in [13]; 0.01 to 5 µM in test [11].
Consider `Cc1ccc([N+](=O)[O-])cc1S(=O)(=O)N(C)N=Cc1cnc2ccc(-c3ccncc3)cn12` [Example 85, N, 2-dimethyl-5-nitro-N′-((6-(pyridine-4-yl)imidazo[1,2-a]pyridine-3-yl)methylene) benzenesulfonohydrazide], for which the IC50 was 0.01 to 5 µM in test [2]; 0.01 to 5 µM in [6]; 0.01 to 5 µM in test [12]; 0.01 to 5 µM in test [7]; over 5 µM in test [13]; 0.01 to 5 µM in test [11].

One may read the IC50 as the point on the concentration scale where inhibition reaches its midpoint. A word on the inhibition: it is the relative decrease from the control value, in per cent.
